# Measurements published in patent publication US8765748B2, “Indazolyl, benzimidazolyl, benzotriazolyl substituted indolinone derivatives as kinase inhibitors useful in the treatment of cancer” (University Health Network, priority 2007, dated 2014).
# pIC50: −log10 of the molar value.
# How the values were obtained:
# KDR = molecular target: T1, KDR (Homo sapiens, UniProt P35968); assay: Millipore kinase assay, radiolabelled phosphopeptide filter binding, IC50 estimate; type: biochemical; details: estimated from inhibition at three compound concentrations; ATP at the Km
# T1 construct: purchased Millipore (assay service)
# Method: (§1) Kinase assays at Millipore were performed using a radiolabelled phosphopeptide filter binding detection system, in duplicate, at each compound concentration. The ATP substrate concentration in the reactions was at the Km for each enzyme.
# (§2) To allow for a more direct comparison of compound inhibition, an IC50 value was estimated from the inhibition determined at three compound concentrations. Several assumptions were made to allow this calculation using a 4 parameter non linear curve fit model, including full inhibition set at 100%, no inhibition set to 0%, and a curve fit parameter set at 1. The inflection point was reported as the estimated IC50.
# Ret = Ret (Homo sapiens, UniProt P07949); assay: as above; type: biochemical; design: purchased Millipore (assay service); details: estimated from inhibition at three compound concentrations; ATP at the Km
# Method: as §1, §2
# Lyn = Lyn (Homo sapiens, UniProt P07948); assay: as above; type: biochemical; design: purchased Millipore (assay service); details: estimated from inhibition at three compound concentrations; ATP at the Km
# Method: as §1, §2
# TRKA = TRKA (Homo sapiens, UniProt P04629); assay: as above; type: biochemical; design: purchased Millipore (assay service); details: estimated from inhibition at three compound concentrations; ATP at the Km
# Method: as §1, §2
# Abl = Abl (Homo sapiens, UniProt P00519); assay: as above; type: biochemical; design: purchased Millipore (assay service); details: estimated from inhibition at three compound concentrations; ATP at the Km
# Method: as §1, §2
# [1] = test system: 184A1 immortalized breast cell line; assay: Cell growth inhibition, SRB assay, extended panel; type: cell-based; details: read-out: GI50 Range, 184A1
# Method: (§3) Breast cancer cells (MCF-7, MDA-MB-468, HCC1954), colon cancer cells (SW620) and lung cancer cells (A549), together with human mammary epithelial primary cells (HMEC), were seeded (1000 to 4000 per 80 μl per well depending on the cell growth rate) into 96 well plates, 24 hours before compound overlay. Compounds were prepared as 10 mM stock solutions in 100% DMSO which were diluted with DMEM (Dulbecco's Modified Eagle's Medium) cell growth Medium (Invitrogen, Burlington, ON, Canada) containing 10% FBS (Fetal Bovine Serum) to concentrations ranging from 50 nM to 250 μM. Aliquots (20 μl) from each concentration were overlaid to 80 μl of the pre-seeded cells in the 96 well plates to make final concentrations of 10 nM to 50 μM. The cells were cultured for 5 days before the Sulforhodamine B assay (SRB) was performed to determine the compound's cell growth inhibition activity.
# (§4) Sulforhodamine B (purchased from Sigma, Oakville, ON, Canada) is a water-soluble dye that binds to the basic amino acids of the cellular proteins. Thus, colorimetric measurement of the bound dye provides an estimate of the total protein mass that is related to the cell number. the cells are fixed in situ by gently aspirating off the culture media and adding 50 μl ice cold 10% Tri-chloroacetic Acid (TCA) per well and incubate at 4° C. for 30-60 min, The plates are washed with water five times and allowed to air dry for 5 min. Addition of 50 μl 0.4% (w/v) SRB solution in 1% (v/v) acetic acid to each well and incubatation for 30 min at RT completes the staining reaction. Following staining, plates are washed four times with 1% acetic acid to remove unbound dye and then allowed to air dry for 5 min. The stain is solubilized with 100 μl of 10 mM Tris pH10.5 per well. Absorbance is read at 570 nm.
# (§5) The percentage (%) of relative growth inhibition was calculated by comparing to DMSO treated only cells (100%). GI50's were determined for compounds with cytotoxic activity. The GI50 was calculated using GraphPad PRISM software (GraphPad Software, Inc., San Diego, Calif., USA).
# (§6) In addition to the cell lines tested as described above, selected compounds have been assayed against an extended panel. […] The sulforhodamine B assay (SRB) described above was use to assay test compounds against the extended panel (Table 9).
# [2] = test system: BT474 breast cancer cell line; assay: Cell growth inhibition, SRB assay, extended panel; type: cell-based; details: Homo sapiens, BT-474, read-out: GI50 Range, BT474
# Method: as §3, §4, §5, §6
# [3] = test system: Colo 205 colon cancer cell line; assay: Cell growth inhibition, SRB assay, extended panel; type: cell-based; details: Homo sapiens, read-out: GI50 Range, Colo 205
# Method: as §3, §4, §5, §6
# [4] = test system: Hs683 brain cancer cell line; assay: Cell growth inhibition, SRB assay, extended panel; type: cell-based; details: Homo sapiens, Hs 683, read-out: GI50 Range, Hs683
# Method: as §3, §4, §5, §6
# [5] = test system: SK-OV-3 ovarian cancer cell line; assay: Cell growth inhibition, SRB assay, extended panel; type: cell-based; details: Homo sapiens, read-out: GI50 Range, SK-OV-3
# Method: as §3, §4, §5, §6
# [6] = test system: OVCAR-3 ovarian cancer cell line; assay: Cell growth inhibition, SRB assay, extended panel; type: cell-based; details: Homo sapiens, read-out: GI50 Range, OVCAR-3
# Method: as §3, §4, §5, §6
# [7] = test system: T47 D breast cancer cell line; assay: Cell growth inhibition, SRB assay, extended panel; type: cell-based; details: Homo sapiens, T47D; SRB, extended panel; read-out: GI50 Range, T47 D
# Method: as §3, §4, §5, §6
# [8] = test system: HCT116+/+ colon cancer cell line; assay: Cell growth inhibition, SRB assay, extended panel; type: cell-based; details: Homo sapiens, HCT-116, read-out: GI50 Range, HCT116+/+
# Method: as §3, §4, §5, §6
# [9] = test system: SKBR3 breast cancer cell line; assay: Cell growth inhibition, SRB assay, extended panel; type: cell-based; details: Homo sapiens, SK-BR-3, read-out: GI50 Range, SKBR3
# Method: as §3, §4, §5, §6
# 518A2 melanoma cell line = assay: Cell growth inhibition, SRB assay, extended panel; type: cell-based; details: Homo sapiens, read-out: GI50 Range, 518A2
# Method: as §3, §4, §5, §6
# Chain of Lyn (P07948 whole entry): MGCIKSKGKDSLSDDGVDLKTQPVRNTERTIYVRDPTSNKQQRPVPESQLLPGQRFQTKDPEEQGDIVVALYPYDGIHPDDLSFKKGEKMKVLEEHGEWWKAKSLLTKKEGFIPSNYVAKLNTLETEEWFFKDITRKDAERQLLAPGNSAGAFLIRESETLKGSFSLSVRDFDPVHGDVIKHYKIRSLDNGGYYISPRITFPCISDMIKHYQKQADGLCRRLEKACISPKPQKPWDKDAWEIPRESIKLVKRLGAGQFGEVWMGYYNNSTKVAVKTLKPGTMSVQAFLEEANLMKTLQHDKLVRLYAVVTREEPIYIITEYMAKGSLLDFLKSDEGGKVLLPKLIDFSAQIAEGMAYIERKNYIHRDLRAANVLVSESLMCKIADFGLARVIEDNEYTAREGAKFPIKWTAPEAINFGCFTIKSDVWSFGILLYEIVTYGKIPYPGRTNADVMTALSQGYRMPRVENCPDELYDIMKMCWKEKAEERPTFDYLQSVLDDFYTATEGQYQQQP
# Chain of Abl (P00519 whole entry): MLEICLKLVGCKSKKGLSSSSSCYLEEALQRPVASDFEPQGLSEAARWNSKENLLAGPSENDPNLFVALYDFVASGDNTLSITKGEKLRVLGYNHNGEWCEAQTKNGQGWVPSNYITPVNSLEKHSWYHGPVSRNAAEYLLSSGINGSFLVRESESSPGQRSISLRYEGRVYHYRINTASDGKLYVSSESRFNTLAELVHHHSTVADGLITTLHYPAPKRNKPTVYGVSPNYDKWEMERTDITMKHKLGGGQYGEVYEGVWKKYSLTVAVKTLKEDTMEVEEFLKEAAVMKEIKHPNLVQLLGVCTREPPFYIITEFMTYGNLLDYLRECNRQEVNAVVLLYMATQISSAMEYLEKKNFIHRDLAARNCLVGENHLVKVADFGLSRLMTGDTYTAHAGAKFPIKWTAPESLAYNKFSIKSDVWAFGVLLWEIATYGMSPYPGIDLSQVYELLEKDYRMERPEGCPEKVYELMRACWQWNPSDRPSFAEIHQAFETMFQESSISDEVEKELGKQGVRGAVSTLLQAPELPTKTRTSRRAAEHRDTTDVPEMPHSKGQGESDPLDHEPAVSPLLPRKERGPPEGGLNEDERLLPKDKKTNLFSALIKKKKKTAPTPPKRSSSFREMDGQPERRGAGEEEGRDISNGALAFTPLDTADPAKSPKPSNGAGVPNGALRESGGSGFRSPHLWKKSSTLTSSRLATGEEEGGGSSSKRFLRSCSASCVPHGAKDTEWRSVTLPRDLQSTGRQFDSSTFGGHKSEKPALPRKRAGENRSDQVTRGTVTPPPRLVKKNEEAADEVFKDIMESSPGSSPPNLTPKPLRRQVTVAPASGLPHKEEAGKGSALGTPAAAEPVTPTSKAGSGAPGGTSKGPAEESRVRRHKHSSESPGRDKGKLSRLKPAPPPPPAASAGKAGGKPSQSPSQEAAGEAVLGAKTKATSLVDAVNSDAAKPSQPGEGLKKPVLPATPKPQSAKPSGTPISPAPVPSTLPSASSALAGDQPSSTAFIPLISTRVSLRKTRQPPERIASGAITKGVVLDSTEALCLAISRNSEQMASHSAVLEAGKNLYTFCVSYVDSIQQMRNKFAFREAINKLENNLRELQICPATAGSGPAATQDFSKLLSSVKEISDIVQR
# Chain of TRKA (P04629 33-796): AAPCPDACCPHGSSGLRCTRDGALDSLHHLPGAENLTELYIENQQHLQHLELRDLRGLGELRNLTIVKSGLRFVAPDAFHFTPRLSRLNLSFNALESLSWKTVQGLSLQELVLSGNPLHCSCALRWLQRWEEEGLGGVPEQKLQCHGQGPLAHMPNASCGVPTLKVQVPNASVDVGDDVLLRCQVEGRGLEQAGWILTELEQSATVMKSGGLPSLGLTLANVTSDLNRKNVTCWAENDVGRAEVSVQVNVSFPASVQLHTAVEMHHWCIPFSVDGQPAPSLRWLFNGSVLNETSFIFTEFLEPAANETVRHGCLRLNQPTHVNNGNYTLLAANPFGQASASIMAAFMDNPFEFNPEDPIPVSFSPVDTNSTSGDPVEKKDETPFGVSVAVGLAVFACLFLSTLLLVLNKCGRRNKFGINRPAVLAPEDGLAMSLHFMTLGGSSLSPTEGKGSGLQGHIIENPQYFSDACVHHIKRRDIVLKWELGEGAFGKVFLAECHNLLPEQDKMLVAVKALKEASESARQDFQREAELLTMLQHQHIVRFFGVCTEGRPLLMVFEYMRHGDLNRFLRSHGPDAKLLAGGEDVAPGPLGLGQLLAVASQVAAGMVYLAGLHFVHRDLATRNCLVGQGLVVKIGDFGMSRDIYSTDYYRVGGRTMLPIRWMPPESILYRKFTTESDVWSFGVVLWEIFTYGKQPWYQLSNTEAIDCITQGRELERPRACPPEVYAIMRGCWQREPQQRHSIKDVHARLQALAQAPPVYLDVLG
# Chain of Ret (P07949 29-1114): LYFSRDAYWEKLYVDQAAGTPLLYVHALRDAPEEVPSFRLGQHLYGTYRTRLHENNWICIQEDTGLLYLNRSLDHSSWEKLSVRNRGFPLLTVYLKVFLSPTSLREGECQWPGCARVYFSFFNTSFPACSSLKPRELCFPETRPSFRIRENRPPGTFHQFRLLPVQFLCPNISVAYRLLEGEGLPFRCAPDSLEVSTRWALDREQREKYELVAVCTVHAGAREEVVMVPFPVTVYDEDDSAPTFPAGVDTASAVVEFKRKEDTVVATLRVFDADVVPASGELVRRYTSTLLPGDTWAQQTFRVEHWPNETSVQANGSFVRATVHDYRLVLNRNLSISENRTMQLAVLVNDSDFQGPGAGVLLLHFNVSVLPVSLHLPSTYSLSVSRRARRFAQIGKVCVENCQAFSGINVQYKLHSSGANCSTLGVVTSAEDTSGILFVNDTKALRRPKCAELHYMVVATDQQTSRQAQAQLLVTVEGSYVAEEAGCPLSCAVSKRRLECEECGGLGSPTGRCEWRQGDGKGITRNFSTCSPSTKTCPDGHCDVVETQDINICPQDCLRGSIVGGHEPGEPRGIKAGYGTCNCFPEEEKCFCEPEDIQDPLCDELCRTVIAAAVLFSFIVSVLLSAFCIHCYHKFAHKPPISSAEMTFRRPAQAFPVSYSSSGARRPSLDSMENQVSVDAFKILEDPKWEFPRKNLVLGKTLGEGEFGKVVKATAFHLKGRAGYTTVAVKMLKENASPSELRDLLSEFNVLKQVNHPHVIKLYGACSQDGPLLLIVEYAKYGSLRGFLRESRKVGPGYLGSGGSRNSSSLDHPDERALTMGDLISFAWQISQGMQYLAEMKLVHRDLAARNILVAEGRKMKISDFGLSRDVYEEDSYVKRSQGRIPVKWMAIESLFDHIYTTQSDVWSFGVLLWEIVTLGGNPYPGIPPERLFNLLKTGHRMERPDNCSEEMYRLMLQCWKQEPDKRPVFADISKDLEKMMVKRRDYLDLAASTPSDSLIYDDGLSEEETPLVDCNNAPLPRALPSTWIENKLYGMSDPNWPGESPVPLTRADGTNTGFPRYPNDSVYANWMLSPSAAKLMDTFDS
# T1 sequence (P35968 20-1356): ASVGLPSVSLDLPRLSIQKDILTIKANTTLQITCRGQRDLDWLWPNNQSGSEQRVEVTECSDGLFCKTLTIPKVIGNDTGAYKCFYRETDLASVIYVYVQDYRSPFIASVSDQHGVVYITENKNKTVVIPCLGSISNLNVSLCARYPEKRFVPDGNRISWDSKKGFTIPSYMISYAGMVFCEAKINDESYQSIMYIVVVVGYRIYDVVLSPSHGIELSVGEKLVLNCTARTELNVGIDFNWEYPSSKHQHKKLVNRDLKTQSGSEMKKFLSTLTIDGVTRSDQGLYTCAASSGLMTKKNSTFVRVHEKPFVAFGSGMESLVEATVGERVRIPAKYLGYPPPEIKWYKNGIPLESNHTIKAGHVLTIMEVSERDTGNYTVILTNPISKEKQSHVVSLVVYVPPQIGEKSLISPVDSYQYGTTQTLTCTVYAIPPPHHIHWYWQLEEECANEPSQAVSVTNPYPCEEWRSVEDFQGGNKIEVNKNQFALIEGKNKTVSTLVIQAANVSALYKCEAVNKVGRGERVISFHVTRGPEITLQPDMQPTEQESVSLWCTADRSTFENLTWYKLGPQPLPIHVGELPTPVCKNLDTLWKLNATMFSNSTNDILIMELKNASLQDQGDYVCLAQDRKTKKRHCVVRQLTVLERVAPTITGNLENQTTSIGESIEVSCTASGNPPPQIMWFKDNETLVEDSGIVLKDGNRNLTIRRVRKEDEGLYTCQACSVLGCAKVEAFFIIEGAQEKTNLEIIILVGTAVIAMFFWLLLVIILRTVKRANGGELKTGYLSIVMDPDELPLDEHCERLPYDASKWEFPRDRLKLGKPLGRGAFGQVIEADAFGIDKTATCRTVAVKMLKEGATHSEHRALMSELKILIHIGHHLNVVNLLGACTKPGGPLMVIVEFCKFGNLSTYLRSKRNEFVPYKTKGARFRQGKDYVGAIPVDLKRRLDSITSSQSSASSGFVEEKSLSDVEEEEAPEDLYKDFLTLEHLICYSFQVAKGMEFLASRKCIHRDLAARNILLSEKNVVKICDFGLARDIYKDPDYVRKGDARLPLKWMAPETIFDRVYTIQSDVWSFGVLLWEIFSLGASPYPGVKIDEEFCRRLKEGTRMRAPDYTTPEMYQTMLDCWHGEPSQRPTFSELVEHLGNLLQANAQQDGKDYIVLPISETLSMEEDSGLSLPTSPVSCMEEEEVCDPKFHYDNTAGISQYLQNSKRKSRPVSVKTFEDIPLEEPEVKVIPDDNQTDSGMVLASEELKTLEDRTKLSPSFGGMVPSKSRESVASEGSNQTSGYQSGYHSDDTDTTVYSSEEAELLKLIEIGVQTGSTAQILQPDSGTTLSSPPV
SMILES,pIC50 (KDR),pIC50 (Ret),pIC50 (Lyn),pIC50 (TRKA),pIC50 (Abl),GI50 [1] [µM],GI50 [2] [µM],GI50 [3] [µM],GI50 [4] [µM],GI50 [5] [µM],GI50 [6] [µM],GI50 [7] [µM],GI50 [8] [µM],GI50 [9] [µM],GI50 (518A2 melanoma cell line) [µM]
"O=C1Nc2ccccc2C1=Cc1ccc2c(/C=C/c3ccccn3)n[nH]c2c1 (mixture of isomers) [Example A41, (E and Z)-3-((3-((E)-2-(pyridin-2-yl)vinyl)-1H-indazol-6-yl)methylene)indolin-2-one]",> 5.30,> 5.30,> 5.30,> 5.30,> 5.30,20 to 50,> 50,< 5,< 5,> 50,> 50,< 5,> 50,< 5,< 5
"COc1ccc2c(c1)C(=Cc1ccc3c(-c4ccc(N5CCN(C)CC5)nc4)n[nH]c3c1)C(=O)N2 (mixture of isomers) [Example A97, (E and Z)-5-methoxy-3-((3-(6-(4-methylpiperazin-1-yl)pyridin-3-yl)-1H-indazol-6-yl)methylene)indolin-2-one]",> 5.30,> 5.30,4.30 to 5.30,> 5.30,> 5.30,< 5,< 5,< 5,,,,< 5,< 5,< 5,
"CN(C)Cc1ccc(/C=C/c2n[nH]c3cc(C=C4C(=O)Nc5ccccc54)ccc23)cc1 (mixture of isomers) [Example A106, (E and Z)-3-[(3-{(E)-2-[4-((dimethylamino)methyl)-phenyl]-ethenyl}-1H-indazol-6-yl)methylidene]-1,3-dihydro-2H-indol-2-one 2,2,2-trifluoroacetate]",,> 5.30,> 5.30,> 5.30,> 5.30,,,,,,,,,,
"CN1CCN(c2ccc(/C=C/c3n[nH]c4cc(C=C5C(=O)Nc6ccccc65)ccc34)cn2)CC1 (mixture of isomers) [Example A108, (E and Z)-3-((3-((E)-2-(6-(4-methylpiperazin-1-yl)pyridin-3-yl)vinyl)-1H-indazol-6-yl)methylene)indolin-2-one]",,,,,,< 5,< 5,< 5,< 5,< 5,< 5,< 5,< 5,< 5,< 5
"O=C1Nc2ncc(Br)cc2C1=Cc1ccc2c(/C=C/c3ccncc3)n[nH]c2c1 (mixture of isomers) [Example A109, (E and Z)-5-bromo-3-((3-((E)-2-(pyridin-4-yl)vinyl)-1H-indazol-6-yl)methyl-ene)-1H-pyrrolo[2,3-b]pyridin-2(3H)-one]",,,,,,< 5,5 to 20,< 5,< 5,5 to 20,< 5,< 5,< 5,> 50,< 5
